Laboratory results published in ChEMBL document CHEMBL4619790, “Design and Development of a Macrocyclic Series Targeting Phosphoinositide 3-Kinase δ” (ACS Med Chem Lett, 2020).

Key:
[1] = Solubility of the compound by CLND method; assay type: physicochemical
[2] = Volume of distribution at steady state in iv dosed rat; assay type: ADME, organism-based; conditions: in vivo, read-out: Vdss
[3] = Stability in minipig microsomes assessed as clearance; assay type: ADME, Sus scrofa, Microsome; conditions: pig
[4] = Clearance in iv dosed rat; assay type: ADME, organism-based; conditions: in vivo
[5] = Lipophilicity, log D of the compound at pH 7.4 by chromatographic method; assay type: physicochemical; conditions: buffer
[6] = Unbound clearance in iv dosed rat; assay type: ADME, organism-based; conditions: in vivo
[7] = Half life in iv dosed rat; assay type: ADME, organism-based; conditions: in vivo
[8] = Dissociation constant, pKa of compound; assay type: physicochemical
[9] = Stability in minipig Hepatocyte assessed as clearance; assay type: ADME, cell-based, Sus scrofa; conditions: pig, hepatocytes; read-out: CLH
[10] = Permeability of the compound by PAMPA; assay type: ADME; conditions: read-out: permeability

| solubility kinetic [1] | Vd [2] | CLint scaled [3] | clearance [4] | chromatographic logD [5] | CL free [6] | half-life [7] | pKa [8] | CLint scaled [9] | Papp [10] | Structure (SMILES) |
| --- | --- | --- | --- | --- | --- | --- | --- | --- | --- | --- |
| ≥ 331 µM | 1.8 L/kg | 0.92 mL/min/kg | 12.3 mL/min/kg | 4.3 | 192 mL/min/kg | 1.5 h | 5.7 | < 0.89 mL/min/kg | 53 ×10⁻⁶ cm/s | COc1ncc2cc1NS(=O)(=O)CCN(C)Cc1ccc3c(c1)N2CCO3 |
| ≥ 406 µM | 8.5 L/kg | 1.63 mL/min/kg | 233 mL/min/kg | 1.6 | 587 mL/min/kg | 0.6 h | 9.4 | < 0.89 mL/min/kg | 14 ×10⁻⁶ cm/s | COc1ncc(N2CCOc3ccc(CN(C)C)cc32)cc1NS(C)(=O)=O |
